Experimental data published in patent publication US11267806B2, “Indazole compound for use in inhibiting kinase activity, composition and application thereof” (Shenzhen TargetRx, Inc., priority 2017, dated 2022).
Where two headings read alike, the source gives them in different places.

Columns and labels:
KM12 (TPM3-TRKA) cells = assay: cells; conditions: Homo sapiens, KM12, 72 h, read-out: KM12 IC50
Protocol: (§1) Assay methods: 1. Preparation of cell plates: Ba/F3, and Ba/F3 Bcr-Abl T315I cells were separately seeded in 96-well plates, and 8 ng/ml IL-3 was added to Ba/F3 cells. The cell plates were placed in a carbon dioxide incubator for culture overnight. 2. […] 3. Treatment of cells with compounds: The compounds were transferred to cell plates at a starting concentration of 10 μM. The cell plates were incubated in a carbon dioxide incubator for 3 days. 4. Detection: CellTiter-Glo reagent was added to the cell plates and incubated for 30 minutes at room temperature to stabilize the luminescence signal. Readings were performed using a PerkinElmer Envision multi-label analyzer.

[1] = system: HCC-78 (SLC34A2-ROS1) cells; assay: cells; conditions: Homo sapiens, HCC78, 72 h, read-out: HCC-78 IC50
Protocol: as §1

Ba/F3 EML-ALK cells = assay: Cytotoxicity assay (cell viability, CellTiter-Glo), Ba/F3 EML-ALK; type: cell-based; conditions: Mus musculus, BaF3, 72 h, read-out: Ba/F3 EML-ALK IC50
[2] = Pharmacokinetic assay in rats; type: in vivo, SD rat; conditions: male SD rats, i.g., 3 mg/kg; for AUC(0-t) / Cmax / MRT / Tmax: rat, plasma, po
Protocol: (4) Pharmacokinetic Assay in Rats Assay objective: after administration of test compounds to rats, the pharmacokinetic behavior of the compounds disclosed herein was investigated. Assay Animals: Species and strains: SD rat grade: SPF grade Gender and quantity: male, 6 Weight range: 180 to 220 g (the actual weight range was from 187 to 197 g) Assay Procedure: Before blood samples were collected, 20 μL of 2 M sodium fluoride solution (esterase inhibitor) was previously added to an EDTA-K2 anticoagulant tube, dried in an 80° C. oven, and placed in a 4° C. refrigerator. Rats (male, weighing 187 to 197 g) were randomly divided into 2 groups, and were fasted overnight in the afternoon before the experiment but were allowed to drink water freely. Food was given 4 hours after the administration. […] About 100-200 μL of blood was taken from the orbital vein of rats at 15 min, 30 min, 1, 2, 3, 5, 8 and 10 h after administration, placed in a 0.5 mL Eppendorf tube with EDTA-K2 anticoagulant and mixed immediately. After anticoagulation, the tube was gently inverted 5-6 times as quickly as possible. After the blood was taken, it was placed in an ice box, and then within 30 min, the blood sample was centrifuged for 10 min at 4000 rpm and 4° C. to separate the plasma. Immediately after collection of all plasma, it was stored at −20° C. The concentration of the drug in plasma at each time point was determined after sample collection at all time points. Based on the data of the average concentration of the drug in plasma versus time after administration obtained as described above, pharmacokinetics-related parameters of male SD rats after the i.g. administration of test compounds (3 mg/kg) were calculated using the Winnonin software according to non-compartment statistical moment theory.

[3] = Liver microsomal metabolism assay, human; type: in vitro ADME; conditions: pH 7.4, human liver microsomes 0.5 mg/mL, compound 1 μM, 37° C.; for microsomal CLint at 1 μM: read-out: Human liver microsome assay CLint; for half-life at 1 μM: read-out: Human liver microsome assay t1/2
Protocol: (§2) (3) Liver Microsomal Metabolism Assay
(§3) […]; Coenzyme (NADPH/NADH): 1 mM, Sigma Life Science; Magnesium chloride: 5 mM, 100 mM phosphate buffer (pH 7.4).
(§4) Preparation of stock solutions: Powder of the compounds were accurately weighed and dissolved in DMSO to 5 mM.
(§5) Preparation of phosphate buffer (100 mM, pH7.4): A pre-prepared 0.5M potassium dihydrogen phosphate (150 mL) was mixed with 0.5M dibasic potassium phosphate (700 mL). The pH of the mixture was adjusted to 7.4 with 0.5M dibasic potassium phosphate solution. The mixture was diluted 5-fold with ultrapure water before use, and magnesium chloride was added to obtain a phosphate buffer (100 mM) containing 100 mM potassium phosphate, 3.3 mM magnesium chloride, pH 7.4.
(§6) A NADPH regeneration system solution (containing 6.5 mM NADP, 16.5 mM G-6-P, 3 U/mL G-6-P D, 3.3 mM magnesium chloride) was prepared and placed on wet ice prior to use.
(§7) Incubation of the samples: The stock solutions of the respective compounds were respectively diluted to 0.25 mM with an aqueous solution containing 70% acetonitrile, and used as a working solution, ready for use. 398 μL of the dilution of human liver microsomes or rat liver microsomes were added to 96-well incubation plates (N=2), respectively, and 2 μL of 0.25 mM working solution was added and mixed.
(§8) Metabolic stability assay: 300 μL of pre-chilled stop solution was added to each well of 96-well deep well plates and placed on ice as stop plates. The 96-well incubation plates and NADPH regeneration system were placed in a 37° C. water bath box, shaken at 100 rpm and pre-incubated for 5 min. 80 μL of incubation solution was taken out from each well of the incubation plates and added to the stop plates, mixed, and replenished with 20 μL of NADPH regeneration system solution as a 0-min sample. 80 μL of NADPH regeneration system solution was added to each well of the incubation plates to start the reaction and start counting. […] Separately, 100 μL of the reaction solutions was taken at 10, 30, and 90 min reaction, respectively, added to stop plates, and vortexed for 3 minutes to terminate the reaction. The stop plates were centrifuged at 5000×g at 4° C. for 10 min. 100 μL of the supernatant was added to a 96-well plate to which 100 μL of distilled water was previously added, mixed, and analyzed by LC-MS/MS.
(§9) Data analysis: The peak areas of the corresponding compounds and internal standard were detected by LC-MS/MS system, and the ratio of the peak area of the compounds to the internal standard was calculated.
(§10) The metabolic stability of the compounds in human and rat liver microsomes was evaluated by simultaneously testing and comparing the compounds disclosed herein and the non-deuterated compound. […]

[4] = Liver microsomal metabolism assay, rat; type: in vitro ADME; conditions: SD, pH 7.4, rat liver microsomes 0.5 mg/mL, compound 1 μM, 37° C.; for microsomal CLint at 1 μM: read-out: Rat liver microsome assay CLint; for half-life at 1 μM: read-out: Rat liver microsome assay t1/2
Protocol: as §2, §3, §4, §5, §6, §7, §8, §9, §10

[5] = system: Ba/F3 EML-ALK^L1196M cells; assay: Cytotoxicity assay (cell viability, CellTiter-Glo), Ba/F3 EML-ALK L1196M; type: cell-based; conditions: Mus musculus, BaF3, 72 h, read-out: Ba/F3 EML-ALK^L1196M IC50
[6] = cell viability, 3 days incubation

| SMILES | IC50 (KM12 (TPM3-TRKA) cells) [nM] | IC50 [1] [nM] | Cl_pred [2] [mL/min/kg] | F [2] [%] | AUC(0-t) [2] [ng·h/mL] | Cmax [2] [ng/mL] | MRT [2] [h] | Tmax [2] [h] | microsomal CLint at 1 μM [3] [µL/min/mg] | half-life at 1 μM [3] [h] | microsomal CLint at 1 μM [4] [µL/min/mg] | half-life at 1 μM [4] [h] | IC50 (Ba/F3 EML-ALK cells) [nM] | IC50 (Ba/F3 EML-ALK cells; [6]) [nM] | IC50 [5, 6] [nM] | IC50 [5] [nM] |
| --- | --- | --- | --- | --- | --- | --- | --- | --- | --- | --- | --- | --- | --- | --- | --- | --- |
| [2H]C([2H])([2H])N1CCN(c2ccc(C(=O)Nc3n[nH]c4ccc(Cc5cc(F)cc(F)c5)cc34)c(NC3CCOCC3)c2)CC1 [Compound T-1, N-(5-(3,5-difluorobenzyl)-1H-indazol-3-yl)-4-(4-(methyl-d3)piperazin-1-yl)-2-((tetrahydro-2H-pyran-4-yl)amino)benzamide] | 1 to 10 | 10 to 50 | 155 | 7.43 | 1070 | 145 | 5.31 | 3.33 | 34.7 | 0.665 | 21.3 | 1.09 | 50 to 150 | – | – | – |
| [2H]C1([2H])N(C)C([2H])([2H])C([2H])([2H])N(c2ccc(C(=O)Nc3n[nH]c4ccc(Cc5cc(F)cc(F)c5)cc34)c(NC3CCOCC3)c2)C1([2H])[2H] [Compound T-2, N-(5-(3,5-difluorobenzyl)-1H-indazol-3-yl)-4-(4-methylpiperazin-1-yl-2,2,3,3,5,5,6,6-d8)-2-((tetrahydro-2H-pyran-4-yl)amino)benzamide] | 1 to 10 | 10 to 50 | – | – | – | – | – | – | 31.3 | 0.738 | 19.5 | 1.19 | 50 to 150 | – | – | – |
| [2H]C([2H])([2H])N1C([2H])([2H])C([2H])([2H])N(c2ccc(C(=O)Nc3n[nH]c4ccc(Cc5cc(F)cc(F)c5)cc34)c(NC3CCOCC3)c2)C([2H])([2H])C1([2H])[2H] [Compound T-3, N-(5-(3,5-difluorobenzyl)-1H-indazol-3-yl)-4-(4-(methyl-d3)piperazin-1-yl-2,2,3,3,5,5,6,6-d8)-2-((tetrahydro-2H-pyran-4-yl)amino)benzamide] | – | – | 411 | 13.03 | 1550 | 237 | 4.91 | 3.33 | 39.2 | 0.59 | 27.3 | 0.845 | – | 50 to 150 | > 200 | – |

The next lines start with results.

| IC50 (KM12 (TPM3-TRKA) cells) [nM] | IC50 [1] [nM] | Cl_pred [2] [mL/min/kg] | F [2] [%] | AUC(0-t) [2] [ng·h/mL] | Cmax [2] [ng/mL] | MRT [2] [h] | Tmax [2] [h] | microsomal CLint at 1 μM [3] [µL/min/mg] | half-life at 1 μM [3] [h] | microsomal CLint at 1 μM [4] [µL/min/mg] | half-life at 1 μM [4] [h] | SMILES | IC50 (Ba/F3 EML-ALK cells) [nM] | IC50 (Ba/F3 EML-ALK cells; [6]) [nM] | IC50 [5, 6] [nM] | IC50 [5] [nM] |
| --- | --- | --- | --- | --- | --- | --- | --- | --- | --- | --- | --- | --- | --- | --- | --- | --- |
| – | – | 97.5 | 13.67 | 1770 | 278 | 5.28 | 4 | 51.1 | 0.452 | 33.7 | 0.685 | [2H]C([2H])(c1cc(F)cc(F)c1)c1ccc2[nH]nc(NC(=O)c3ccc(N4CCN(C)CC4)cc3NC3CCOCC3)c2c1 [Compound T-7, N-(5-((3,5-difluorophenyl)methyl-d2)-1H-indazol-3-yl)-4-(4-methylpiperazin-1-yl)-2-((tetrahydro-2H-pyran-4-yl)amino)benzamide] | – | 50 to 150 | > 200 | – |
| – | – | 113 | 11.78 | 1530 | 254 | 4.42 | 3.33 | 44.9 | 0.515 | 33.6 | 0.688 | [2H]C1([2H])CC(Nc2cc(N3CCN(C)CC3)ccc2C(=O)Nc2n[nH]c3ccc(Cc4cc(F)cc(F)c4)cc23)CC([2H])([2H])O1 [Compound T-8, N-(5-(3,5-difluorobenzyl)-1H-indazol-3-yl)-4-(4-methylpiperazin-1-yl)-2-((tetrahydro-2H-pyran-4-yl-2,2,6,6-d4)amino)benzamide] | – | 50 to 150 | > 200 | – |
| 1 to 10 | 10 to 50 | 114 | 9.23 | 1460 | 236 | 4.24 | 2.17 | 48.1 | 0.48 | 32.9 | 0.703 | CN1CCN(c2ccc(C(=O)Nc3n[nH]c4ccc(Cc5cc(F)cc(F)c5)cc34)c(NC3CCOCC3)c2)CC1 [Entrectinib, N-(5-(3,5-difluorobenzyl)-1H-indazol-3-yl)-4-(4-methylpiperazin-1-yl)-2-((tetrahydro-2H-pyran-4-yl)amino)benzamide, reference compound] | 50 to 150 | – | – | > 200 |
